In assay [1] the test system is influenza A virus (IAV) A/Aichi/2/68 (H3N2) on MDCK cells. The assay is described as follows: microbe, parasite or virus in culture. It is filed as cell-based, influenza A virus A/Aichi/2/68 (H3N2). Conditions: 48 h.
In assay [2] the target is whole RNP complex (viral RNPs) of IAV strain A/PR/8/34 (Influenza A virus, UniProt P03428). The assay is described as follows: biochemical.

Structures are written as SMILES. Where two headings read alike, the source gives them in different places. Bounds are passed on as bounds.

Chain of whole RNP complex (viral RNPs) of IAV strain A/PR/8/34 (P03428 whole entry, looked up, one chain of several): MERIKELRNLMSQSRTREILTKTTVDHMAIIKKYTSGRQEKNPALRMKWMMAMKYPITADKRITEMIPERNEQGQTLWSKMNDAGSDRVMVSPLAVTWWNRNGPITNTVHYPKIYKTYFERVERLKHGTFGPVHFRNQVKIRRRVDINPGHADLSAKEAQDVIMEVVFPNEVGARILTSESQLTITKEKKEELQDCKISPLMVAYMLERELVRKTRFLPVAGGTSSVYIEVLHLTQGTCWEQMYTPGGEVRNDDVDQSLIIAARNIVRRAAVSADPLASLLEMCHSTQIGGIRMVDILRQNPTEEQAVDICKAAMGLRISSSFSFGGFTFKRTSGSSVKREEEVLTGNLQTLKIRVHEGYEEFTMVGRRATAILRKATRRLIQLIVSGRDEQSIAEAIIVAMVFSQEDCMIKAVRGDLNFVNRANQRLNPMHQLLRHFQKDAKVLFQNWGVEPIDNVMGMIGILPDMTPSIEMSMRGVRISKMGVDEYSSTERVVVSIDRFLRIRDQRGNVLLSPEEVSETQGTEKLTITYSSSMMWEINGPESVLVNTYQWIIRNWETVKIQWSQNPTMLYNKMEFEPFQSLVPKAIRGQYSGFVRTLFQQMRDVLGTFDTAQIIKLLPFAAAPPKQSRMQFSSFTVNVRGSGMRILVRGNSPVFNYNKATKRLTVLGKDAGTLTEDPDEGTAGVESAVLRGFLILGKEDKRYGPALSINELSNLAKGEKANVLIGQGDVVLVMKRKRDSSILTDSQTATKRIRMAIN

In the case of `O=C(N[C@@H]1CCC[C@H](Nc2nc(-c3cccc4n[nH]c(=O)n34)ncc2F)C1)N1CCCC1` [reference compound], the IC50 in assay [1] (read-out: CPE) was more than 50 µM.
Same read-out and setting: as for `O=c1[nH]nc2ccc(-c3ncc(F)c(NC4CCCCC4)n3)cn12`, the figure is more than 50 µM.
Turning to `CC(C)Nc1nc(-c2ccc3n[nH]c(=O)n3c2)ncc1F`, the IC50 in assay [1] (read-out: CPE) is more than 50 µM; in assay [2] it was 44.9 µM.
The corresponding values for `O=c1[nH]nc2ccc(-c3ncc(F)c(NCC4CC4)n3)cn12` are more than 50 µM and more than 33.3 µM.
For the compound `COC(=O)CCCCCNc1nc(-c2ccc3n[nH]c(=O)n3c2)ncc1F`, the IC50 is 39.3 µM in assay [1] (read-out: CPE IC50) and more than 33.3 µM in assay [2].
On to `O=C(O)CCCCCNc1nc(-c2ccc3n[nH]c(=O)n3c2)ncc1F`, for which the IC50 in assay [1] (read-out: CPE IC50) was more than 100 µM; in assay [2] it was 149 µM.
In the case of `O=C(N[C@@H]1CCC[C@H](Nc2nc(-c3ccc4n[nH]c(=O)n4c3)ncc2F)C1)N1CCCC1`, in assay [1] (read-out: CPE IC50), the IC50 is 9.1 µM.
As for `CC(C)[C@@H](CC(=O)O)Nc1nc(-c2ccc3n[nH]c(=O)n3c2)ncc1F`, the IC50 in assay [1] (read-out: CPE) was more than 50 µM; in assay [2] it was more than 33.3 µM.
For `O=C(O)[C@@H]1CCC[C@H](Nc2nc(-c3ccc4n[nH]c(=O)n4c3)ncc2F)C1`, in that order: more than 50 µM and 14.3 µM.
Consider `COC(=O)[C@@H]1CCC[C@H](Nc2nc(-c3ccc4n[nH]c(=O)n4c3)ncc2F)C1`, for which the IC50 was more than 50 µM in assay [1] (read-out: CPE) and more than 33.3 µM in assay [2].
For `O=c1[nH]nc2ccc(-c3ncc(F)c(NCCO)n3)cn12`, in assay [1] (read-out: CPE), the IC50 was more than 50 µM.
For the compound `CC(C)[C@H](Nc1nc(-c2ccc3n[nH]c(=O)n3c2)ncc1F)C(=O)O`, the IC50 was more than 50 µM in assay [1] (read-out: CPE) and more than 33.3 µM in assay [2].
The corresponding values for `CC(C)C(C)Nc1nc(-c2ccc3n[nH]c(=O)n3c2)ncc1F` (centres unmarked) are more than 50 µM and 73.2 µM.
In the case of `COC(=O)C[C@@H](Nc1nc(-c2ccc3n[nH]c(=O)n3c2)ncc1F)C(C)C`, the IC50 in assay [1] (read-out: CPE) was more than 50 µM.
For `COC(=O)CC(Nc1nc(-c2ccc3n[nH]c(=O)n3c2)ncc1F)C1CC1` (centres unmarked), the IC50 in assay [1] (read-out: CPE) was more than 50 µM.
On to `CNc1nc(-c2ccc3n[nH]c(=O)n3c2)ncc1F`, for which the IC50 in assay [1] (read-out: CPE) was more than 50 µM; in assay [2], more than 33.3 µM.
As for `COC(=O)[C@@H](Nc1nc(-c2ccc3n[nH]c(=O)n3c2)ncc1F)C(C)C`, the IC50 in assay [1] (read-out: CPE IC50) came out at 38.5 µM.
For the compound `O=C(O)CC(Nc1nc(-c2ccc3n[nH]c(=O)n3c2)ncc1F)C1CC1` (centres unmarked), the IC50 in assay [1] (read-out: CPE) was more than 50 µM; in assay [2], more than 25 µM.

The values above are taken from US20170081324A1 (priority 2015, published 2017).
